# Results reported in publication PMC12641781, “Insights into Hepatic, Neuronal, and hERG Channel Safety of Plant-Derived Active Compounds” (Journal of Xenobiotics, 2025).
# Like-named read-outs stand apart in the source and are kept apart here.
# Columns and labels:
# HepG2 cells [1] = experiment: Hepatocellular viability assay (resazurin reduction); assay type: cell-based, Human; settings: for IC50: Homo sapiens, read-out: IC50, HepG2 cell viability
# Experimental: HepG2 cells (1.5 × 10^4 cells per 100 µL) were seeded into black, clear-bottom 96-well plates and incubated at 37 °C with 5% CO2 for 24 h. The test compounds were prepared in complete media at final concentrations of 0.01, 0.1, 1, 10, and 100 μM and added to each well. For the negative control, 0.2% (v/v) DMSO was used to represent maximum viability, while 0.01% (v/v) Triton X-100 was used as the positive control for minimum viability. The plates were incubated at 37 °C under 5% CO2. After 20 h of incubation, 20% (v/v) CellTiter-Blue Cell Resazurin reagent was added to each well, followed by an additional 2–4 h of incubation. Fluorescence intensity, indicating resorufin levels, was measured at 590 nm using a Synergy H1 reader was obtained from Agilent Technologies (Santa Clara, CA, USA). Each data point was normalized based on the maximum and minimum cell viability data and expressed as % Relative viability using the following formula: % Relative viability=(Experimental data−Minimal viability data)/(Maximal viability data−Minimal viability data)×100
# hERG = biological target: T1, hERG (Homo sapiens, UniProt Q12809); experiment: hERG inhibition assay by automated patch-clamp electrophysiology in hERG-overexpressing HEK293 cells; assay type: cell-based
# T1 construct: host or cells: HEK293 cells stably overexpressing hERG
# T1 sequence (Q12809 whole entry): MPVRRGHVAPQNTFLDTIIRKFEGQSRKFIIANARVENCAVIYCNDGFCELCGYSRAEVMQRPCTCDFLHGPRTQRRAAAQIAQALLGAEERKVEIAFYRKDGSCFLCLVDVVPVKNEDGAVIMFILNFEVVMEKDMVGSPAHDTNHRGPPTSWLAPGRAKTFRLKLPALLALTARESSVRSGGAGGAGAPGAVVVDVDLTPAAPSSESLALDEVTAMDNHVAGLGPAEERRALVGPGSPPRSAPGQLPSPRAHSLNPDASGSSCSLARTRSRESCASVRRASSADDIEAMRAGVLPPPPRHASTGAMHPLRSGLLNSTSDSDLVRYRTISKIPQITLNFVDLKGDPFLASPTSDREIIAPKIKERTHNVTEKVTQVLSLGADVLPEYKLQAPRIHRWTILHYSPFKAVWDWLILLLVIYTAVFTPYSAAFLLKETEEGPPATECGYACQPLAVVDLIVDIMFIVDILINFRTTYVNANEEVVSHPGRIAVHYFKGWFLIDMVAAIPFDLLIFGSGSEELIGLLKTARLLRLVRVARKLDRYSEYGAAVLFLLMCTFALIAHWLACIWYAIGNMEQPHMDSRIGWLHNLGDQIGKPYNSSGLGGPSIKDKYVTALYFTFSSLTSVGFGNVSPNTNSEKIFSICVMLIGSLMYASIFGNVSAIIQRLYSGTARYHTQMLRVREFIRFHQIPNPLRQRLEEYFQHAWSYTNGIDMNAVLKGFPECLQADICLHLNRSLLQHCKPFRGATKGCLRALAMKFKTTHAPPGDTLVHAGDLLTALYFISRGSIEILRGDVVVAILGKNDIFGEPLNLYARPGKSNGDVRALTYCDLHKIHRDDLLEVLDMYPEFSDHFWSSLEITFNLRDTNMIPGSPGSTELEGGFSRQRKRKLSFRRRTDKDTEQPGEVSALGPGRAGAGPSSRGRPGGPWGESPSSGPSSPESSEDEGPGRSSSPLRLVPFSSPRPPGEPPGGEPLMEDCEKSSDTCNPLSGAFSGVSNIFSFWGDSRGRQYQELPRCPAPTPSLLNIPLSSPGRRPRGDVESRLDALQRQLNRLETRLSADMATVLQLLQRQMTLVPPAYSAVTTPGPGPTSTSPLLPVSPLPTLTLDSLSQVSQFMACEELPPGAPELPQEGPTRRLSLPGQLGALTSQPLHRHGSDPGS
# Experimental: hERG channel inhibition assay was performed using patch-clamp electrophysiology. HEK293 cells stably overexpressing hERG channels (Eurofins Scientific, Luxembourg) were cultured in Dulbecco’s Modified Eagle Medium F-12 (GIBCO, Carlsbad, CA, USA) supplemented with 10% (v/v) fetal bovine serum (FBS) and 1% penicillin/streptomycin at 37 °C with 5% CO2 until reaching approximately 80% confluency. Cells were then subcultured using trypsin (HyClone, Marlborough, MA, USA), to enzymatically detach adherent HEK293 cells, centrifuged, and resuspended in the External standard buffer (Nanion Technologies, Munich, Germany).
# A gigaohm seal was formed after cell seeding in the NPC-16 chip (Nanion Technologies) wells. Brief suction pulses were applied to achieve whole-cell configuration. The hERG channel activity was assessed using a voltage protocol consisting of steps to −80 mV, −40 mV, +40 mV, −40 mV, and back to −80 mV, triggering tail currents. Each well’s peak hERG tail current served as the baseline activity level. To evaluate the inhibitory effects of the six tested compounds, their stock solutions ([…]) were diluted with the external standard buffer to final concentrations of 100 µM, 10 µM, 1 µM, 0.1 µM, and 0.01 µM, and automatically applied to the wells. Subsequently, hERG channel activity was measured again using the same voltage protocol. The relative changes in hERG activity induced by the compounds were calculated and expressed as percentages using the following formula:% hERG activity = (Peak hERG tail current after compound treatment/Peak hERG tail current before compound treatment) × 100
# [2] = system: Undifferentiated ReNcell VM cells; experiment: Neuronal viability assay, undifferentiated cells (resazurin); assay type: cell-based, human; settings: for IC50: 24 h, read-out: IC50, undifferentiated ReNcell VM cell viability; for Inhibition of undifferentiated ReNcell NSC viability: at concentrations up to 100 µM, compared to Triton X-100
# Experimental: Undifferentiated ReNcell VM cells were seeded into Matrigel®-coated black, clear-bottom 96-well plates at densities of 1.5 × 10^4 per well. The cells were maintained in ReNcell NSC Maintenance Media (Merck Millipore, MA, USA), supplemented with 10% EGF and 1% penicillin/streptomycin, and were incubated at 37 °C with 5% CO2 for 24 h.
# (§1) Differentiated ReNcell VM cells were seeded into Matrigel®-coated black, clear-bottom 96-well plates at densities of 3.0 × 10^4 per well. The ReNcell VM cells were incubated at 37 °C with 5% CO2 in the ReNcell Maintenance Media (Merck Millipore, MA, USA) without growth factor. The media was changed every two days for three weeks. Both cell types were treated with test compounds at 0.01, 0.1, 1, 10, and 100 μM. DMSO was used as the control for maximum cell viability, and Triton X-100 was the control for minimum viability. After 20 h of incubation at 37 °C with 5% CO2. Cell viability was assessed using the CellTiter-Blue® Cell Resazurin reagent.
# [3] = system: Differentiated ReNcell VM cells; experiment: Neuronal viability assay, differentiated cells (resazurin); assay type: cell-based; settings: Homo sapiens, read-out: IC50, differentiated ReNcell VM cell viability
# Experimental: ReNcell VM cells were seeded into Matrigel®-coated black, clear-bottom 96-well plates at a density of 3.0 × 10^4 cells per well for differentiation assays. The cells were maintained in ReNcell NSC Maintenance Medium (Merck Millipore, Burlington, MA, USA) without growth factors to induce differentiation. The culture medium was changed every two days for three weeks.
# as §1
# [4] = rats, oral dose of 100 mg/kg body weight; read-out: plasma Cmax; cited from earlier work
# [5] = single oral dose of rikkunshito (7.5 g/day), healthy Japanese subjects; cited from earlier work
# [6] = system: triple-negative breast cancer (TNBC) cells; parameters: method as in PMID 29348769, PMID 31388314, PMID 40952293; settings: cited from earlier work
# HepG2 cells [7] = system: HepG2 cells; parameters: method as in PMID 29348769, PMID 31388314, PMID 40952293; settings: cited from earlier work
# [8] = AL single oral dose of 1000 mg/kg body weight (equivalent to 48.4 mg of ATD), healthy Thai subjects; cited from earlier work
# CYP2D6 = system: CYP2D6; parameters: method as in PMID 37553989; settings: EPMC as major active compound of the Dephrungsith formulation; cited from earlier work
# CYP1A1 = system: CYP1A1; parameters: method as in PMID 24146513; settings: in the Yahom Tultavai formulation; cited from earlier work
# CYP1A2 = system: CYP1A2; parameters: method as in PMID 24146513; settings: in the Yahom Tultavai formulation; cited from earlier work
# CYP2E1 = system: CYP2E1; parameters: method as in PMID 24146513; settings: in the Yahom Tultavai formulation; cited from earlier work
# [9] = parameters: method as in PMID 18039808; settings: oral 500 mg/kg dose in animals; cited from earlier work
# [10] = dose of 10 g, healthy volunteers; cited from earlier work
# [11] = HepG2 cells, 24 h, resazurin assay, 0.01-100 μM
# [12] = hERG-overexpressing HEK293 cells, peak tail current, automated patch clamp, read-out: IC50, hERG channel activity
# [13] = Homo sapiens, undifferentiated ReNcell VM cells, resazurin assay, 0.01-100 μM
# [14] = differentiated ReNcell VM cells (three weeks without growth factor), 24 h, resazurin assay
# [15] = Homo sapiens, ReNcell VM, undifferentiated ReNcell VM cells, resazurin assay, 0.01-100 μM
compound,measurement,setting,value
"C=C1CCC[C@]2(C)CC[C@@H](C(C)(C)O)C[C@@H]12 [BEU, β-eudesmol]",IC50,HepG2 cells [1]; [11],> 100 µM
same,IC50,hERG; [12],33.4 µM
same,IC50,[2]; [13],> 100 µM
same,Inhibition of undifferentiated ReNcell NSC viability,[2],did not inhibit
same,IC50,[3]; [14],> 100 µM
"COc1c(O)cc2oc3cc(O)c(CC=C(C)C)c(O)c3c(=O)c2c1CC=C(C)C [αMG, α-mangostin]",IC50,hERG; [12],> 100 µM
same,Cmax,[4],1380 nM
same,IC50,[3]; [14],6 µM
"C/C=C/C#CC#C/C=C/c1ccco1 [ATD, Atractylodin]",IC50,"HepG2 cells [1]; HepG2, 24 h",> 100 µM
same,IC50,hERG,26.4 µM
same,IC50,hERG; human,22.4 µM
same,IC50,"[2]; Homo sapiens, ReNcell VM",> 100 µM
same,Inhibition of undifferentiated ReNcell NSC viability,[2],did not inhibit
same,maximal plasma concentration (Cmax),[5],0.002 to 20 ng/mL
same,"IC50, triple-negative breast cancer (TNBC) cells",[6],92.11 µg/mL
same,"IC50, inhibitory effects on HepG2 cells",HepG2 cells [7],26.19 µg/mL
same,maximal plasma concentration (Cmax),[8],50.35 (13.8–52.90) ng/mL
same,IC50,[3]; ReNcell VM,> 100 µM
"CCOC(=O)/C=C/c1ccc(OC)cc1 [EPMC, ethyl-p-methoxycinnamate]",CYP2D6 inhibition in vitro,CYP2D6,potently inhibits
same,CYP1A1 inhibition in vivo,CYP1A1,inhibits
same,IC50,"HepG2 cells [1]; HepG2, 24 h, HepG2 cells, 24 h, resazurin assay, 0.01-100 μM",> 100 µM
same,IC50,hERG; [12],53 µM
same,CYP1A2 inhibition in vivo,CYP1A2,inhibits
same,IC50,[2]; [15],> 100 µM
same,Inhibition of undifferentiated ReNcell NSC viability,[2],did not inhibit
same,CYP2E1 inhibition in vivo,CYP2E1,inhibits
same,IC50,[3]; [14],> 100 µM
"CCC/C=C1\OC(=O)C2=C1CCC=C2 [LIG, ligustilide]",IC50,HepG2 cells [1]; [11],> 100 µM
same,IC50,hERG; [12],37.3 µM
same,IC50,[2]; [13],> 100 µM
same,Inhibition of undifferentiated ReNcell NSC viability,[2],did not inhibit
same,plasma Cmax,[9],660 ng/mL
same,IC50,[3]; [14],> 100 µM
"COc1cc(/C=C/C(=O)CC(=O)/C=C/c2ccc(O)c(OC)c2)ccc1O [CUR, Curcumin]",IC50,HepG2 cells [1]; [11],21 µM
same,IC50,[2]; [15],21.1 µM
same,IC50,"[2]; undifferentiated ReNcell VM cells, resazurin assay, 0.01-100 μM",21.2 µM
same,plasma Cmax,[10],2300 ng/mL
triton X-100 [reference compound],HepG2 cell viability compared to the 0.2% DMSO-treated group,HepG2 cells [1],significant decrease in cell viability
